Assay results: patent US20230058171A1, “NEW ORAL PHARMACEUTICAL COMPOSITION FOR CANCER THERAPY” (BOEHRINGER INGELHEIM INTERNATIONAL GMBH, priority 2021, published 2023)

Tested on: advanced or metastatic solid tumors
Assay: Trial 1403-0001 efficacy: tumor response according to RECIST1.1
Type: in vivo, human
Conditions: for Best overall response / days of exposure to the MDM2i of formula I: MDM2 AMPL
Excerpt: Trial 1403-0001 was a first in human Phase Ia/Ib, open label, multicenter, dose-escalation study of the MDM2-antagonist of formula I in patients with advanced or metastatic solid tumors. The Phase Ia dose escalation part aimed to define the Maximum Tolerated Dose (MTD) and the Recommended Dose for Expansion (RDE) for the MDM2-antagonist of formula I based on safety and tolerability, pharmacokinetics, pharmacodynamics, and preliminary efficacy. The RDE will be further explored in the Phase Ib expansion part of the trial.
15 patients in Arm B experienced a stable disease in arm B (representing 60% of all treated patients).
A treatment with a drug candidate (here the MDM2-antagonist of formula I) leading to a “PARTIAL RESPONSE (PR)” is defined by a ≥30% decrease in the sum of diameters of target lesions, taking as reference the sum of diameters of the target lesions prior to treatment (=baseline sum of diameters) according to the RECIST1.1 criteria (Eisenhauer et al, Eur. J. Canc. (2009), Vol. 45, pp. 228-247).
A treatment with a drug candidate (here the MDM2-antagonist of formula I) leading to a “PROGRESSIVE DISEASE (PD)” is defined by a ≥20% increase in the sum of diameters of target lesions, taking as reference the smallest sum of diameters of target lesions on study (including the baseline sum of diameters if that is the smallest sum of diameters of target lesions on study) according to the RECIST1.1 criteria (Eisenhauer et al, Eur. J. Canc. (2009), Vol. 45, pp. 228-247).
A treatment with a drug candidate (here the MDM2-antagonist of formula I) leading to a “STABLE DISEASE (SD)” is defined by neither sufficient shrinkage to qualify for PR nor sufficient increase to qualify for PD, taking as reference the smallest sum of diameters of the target lesions on study (including the baseline sum of diameters if that is the smallest sum of diameters on study) according to the RECIST1.1 criteria (Eisenhauer et al, Eur. J. Canc. (2009), Vol. 45, pp. 228-247).

[1] = Arm A patient 1392001001, WD LPS, 20 mg D1q3w
[2] = Arm A patient 1392001006, DDLPS, 50 mg D1q3w
[3] = Arm A patient 1840003004, DDLPS, 60 mg D1q3w, no prior therapy
[4] = Arm A patient 1840003006, DDLPS, 50 mg D1q3w
[5] = Arm A patient 1840003008, DDLPS, 60 mg D1q3w
[6] = Arm B patient 1392001005, DDLPS, 15/15 mg D1D8q4w
[7] = Arm B patient 1392001007, DDLPS, 30/30 mg D1D8q4w
[8] = Arm B patient 1392001009, WD LPS, 60/60 mg D1D8q4w
[9] = Arm B patient 1840002005, DDLPS, 20/20 mg D1D8q4w, no prior therapy
[10] = Arm B patient 1840003009, DDLPS, 45/45 mg D1D8q4w
[11] = Arm B patient 1840003010, DDLPS, 45/45 mg D1D8q4w
[12] = Arm B patient 1840003011, WD LPS, 30/30 mg D1D8q4w
[13] = Arm B patient 1840003014, WD LPS, 45/45 mg D1D8q4w

Cc1c(C(=O)O)ccc2c3n(nc12)[C@@H]1[C@H](C3)N(CC2CC2)[C@@]2(C(=O)Nc3cc(Cl)ccc32)[C@H]1c1cccc(Cl)c1F [MDM2-antagonist of formula I, (2′S,3′S,3a'S,10a'S)-6-chloro-3′-(3-chloro-2-fluorophenyl)-1′-(cyclopropylmethyl)-6′-methyl-2-oxo-1,2,3′,3a′,10′,10a′-hexahydro-1′H-spiro[indole-3,2′-pyrrolo[2′,3′:4,5]pyrrolo[1,2-b]indazole]-7′-carboxylic acid]
Best overall response [1]: PR (PR, tumor shrinkage of at least −30%)
days of exposure to the MDM2i of formula I [1]: 778 days
Best overall response [2]: SD (SD, tumor growth modification between +20% and −30%)
days of exposure to the MDM2i of formula I [2]: 107 days
Best overall response (Arm A patient 1392001011, WDLPS, 80 mg D1q3w): PR (PR, tumor shrinkage of at least −30%)
days of exposure to the MDM2i of formula I (Arm A patient 1392001011, WDLPS, 80 mg D1q3w, ongoing): 228 days
Best overall response (Arm A patient 1840002004, DDLPS, 45 mg D1q3w): SD (SD, tumor growth modification between +20% and −30%)
days of exposure to the MDM2i of formula I (Arm A patient 1840002004, DDLPS, 45 mg D1q3w, third line): 353 days
Best overall response [3]: SD (SD, tumor growth modification between +20% and −30%)
days of exposure to the MDM2i of formula I [3]: 342 days
Best overall response [4]: SD (SD, tumor growth modification between +20% and −30%)
days of exposure to the MDM2i of formula I [4]: 85 days
Best overall response [5]: SD (SD, tumor growth modification between +20% and −30%)
days of exposure to the MDM2i of formula I [5]: 57 days
Best overall response (Arm A patient 1840003013, WDLPS, 80 mg D1q3w): SD (SD, tumor growth modification between +20% and −30%)
days of exposure to the MDM2i of formula I (Arm A patient 1840003013, WDLPS, 80 mg D1q3w, ongoing): 214 days
Best overall response (Arm A patient 1846002602, DDLPS, 45 mg D1q3w): SD (SD, tumor growth modification between +20% and −30%)
days of exposure to the MDM2i of formula I (Arm A patient 1846002602, DDLPS, 45 mg D1q3w, second line): 709 days
tumor shrinkage (Arm A patient with p53-wildtype MDM2-amplified biliary adenocarcinoma, partial response): 54%
Best overall response [6]: SD (SD, tumor growth modification between +20% and −30%)
days of exposure to the MDM2i of formula I [6]: 491 days
Best overall response [7]: SD (SD, tumor growth modification between +20% and −30%)
days of exposure to the MDM2i of formula I [7]: 218 days
Best overall response [8]: SD (SD, tumor growth modification between +20% and −30%)
days of exposure to the MDM2i of formula I [8]: 105 days
Best overall response [9]: SD (SD, tumor growth modification between +20% and −30%)
days of exposure to the MDM2i of formula I [9]: 542 days
Best overall response [10]: SD (SD, tumor growth modification between +20% and −30%)
days of exposure to the MDM2i of formula I [10]: 274 days
Best overall response [11]: SD (SD, tumor growth modification between +20% and −30%)
days of exposure to the MDM2i of formula I [11]: 64 days
Best overall response [12]: SD (SD, tumor growth modification between +20% and −30%)
days of exposure to the MDM2i of formula I [12]: 100 days
Best overall response (Arm B patient 1840003012, WD LPS, 60/60 mg D1D8q4w): PR (PR, tumor shrinkage of at least −30%)
days of exposure to the MDM2i of formula I (Arm B patient 1840003012, WD LPS, 60/60 mg D1D8q4w, ongoing): 221 days
Best overall response [13]: SD (SD, tumor growth modification between +20% and −30%)
days of exposure to the MDM2i of formula I [13]: 127 days
tumor shrinkage (Arm B patient with p53 wildtype MDM2-amplified pancreatic adenocarcinoma (PAC), partial response): 41%
tumor shrinkage (DDLPS patient, 45 mg, second line therapy, for 709 days): approx. 5%
tumor shrinkage (DDLPS patient, 45 mg, third line therapy, for 353 days): approx. 10%
Disease control, % of patients (arm A (29 treated)): (75.9) %
Disease control, number of patients (arm A (29 treated)): 22
Partial response, number of patients (arm A (29 treated)): 3
Progressive disease, % of patients (arm A (29 treated)): (20.7) %
Progressive disease, number of patients (arm A (29 treated)): 6
Stable disease, number of patients (arm A (29 treated)): 19
Disease control, % of patients (arm B (25 treated)): (68) %
Disease control, number of patients (arm B (25 treated)): 17
Partial response, number of patients (arm B (25 treated)): 2
Progressive disease, % of patients (arm B (25 treated)): (20) %
Progressive disease, number of patients (arm B (25 treated)): 5
Stable disease, number of patients (arm B (25 treated)): 15
Disease control, % of patients (both arms (54 treated)): (72) %
Disease control, number of patients (both arms (54 treated)): 39
Partial response, number of patients (both arms (54 treated)): 5
Progressive disease, % of patients (both arms (54 treated)): (20.3) %
Progressive disease, number of patients (both arms (54 treated)): 11
Stable disease, number of patients (both arms (54 treated)): 34
approximate median PFS (eleven dedifferentiated liposarcoma (DDLPS) patients): around 10.8 months
patients with partial response (of seven well differentiated liposarcoma (WDLPS) patients): three
duration of response (one patient in Arm A): more than 2 years
